Assay results reported in ChEMBL document CHEMBL4177732, “Anti-neuroinflammatory effects of sesquiterpenoids isolated from Nardostachys jatamansi” (Bioorg Med Chem Lett, 2018).

Tests used:
BV-2 [1] = experiment: Cytotoxicity in mouse BV2 cells by MTT assay; assay type: cell-based
BV-2 [2] = experiment: Inhibition of lipopolysaccharide-induced nitric oxide production in mouse BV2 cells assessed as reduction in nitrite level by Griess reaction based ELISA; assay type: functional, cell-based
BV-2 [3] = experiment: Inhibition of lipopolysaccharide-induced nitric oxide production in mouse BV2 cells assessed as reduction in nitrite level at 60 uM by Griess reaction based ELISA; assay type: functional
Microglia [4] = experiment: Inhibition of lipopolysaccharide-induced nitric oxide production in Sprague-Dawley rat primary microglia cells assessed as reduction in nitrite level by Griess reaction based ELISA; assay type: functional, cell-based
Microglia [5] = experiment: Inhibition of lipopolysaccharide-induced COX2 protein expression in Sprague-Dawley rat primary microglia cells pre-incubated for 3 hrs before LPS stimulation by Western blot method; assay type: functional, cell-based
Microglia [6] = experiment: Inhibition of lipopolysaccharide-induced iNOS protein expression in Sprague-Dawley rat primary microglia cells pre-incubated for 3 hrs before LPS stimulation by Western blot method; assay type: functional, cell-based
BV-2 [7] = experiment: Inhibition of lipopolysaccharide-induced COX2 protein expression in mouse BV2 cells pre-incubated for 3 hrs before LPS stimulation by Western blot method; assay type: functional, cell-based
Microglia [8] = experiment: Inhibition of lipopolysaccharide-induced PGE2 production in Sprague-Dawley rat primary microglia cells pre-incubated for 1 hr before LPS stimulation for 24 hrs; assay type: functional, cell-based
Microglia [9] = experiment: Inhibition of lipopolysaccharide-induced TNFalpha production in Sprague-Dawley rat primary microglia cells pre-incubated for 1 hr before LPS stimulation for 24 hrs by ELISA; assay type: functional, cell-based
BV-2 [10] = experiment: Inhibition of lipopolysaccharide-induced iNOS protein expression in mouse BV2 cells pre-incubated for 3 hrs before LPS stimulation by Western blot method; assay type: functional, cell-based
BV-2 [11] = experiment: Inhibition of lipopolysaccharide-induced PGE2 production in mouse BV2 cells pre-incubated for 1 hr before LPS stimulation for 24 hrs; assay type: functional, cell-based
BV-2 [12] = experiment: Inhibition of lipopolysaccharide-induced IL-1beta production in mouse BV2 cells pre-incubated for 1 hr before LPS stimulation for 24 hrs by ELISA; assay type: functional, cell-based
Microglia [13] = experiment: Inhibition of lipopolysaccharide-induced IL-1beta production in Sprague-Dawley rat primary microglia cells pre-incubated for 1 hr before LPS stimulation for 24 hrs by ELISA; assay type: functional, cell-based
BV-2 [14] = experiment: Inhibition of lipopolysaccharide-induced TNFalpha production in mouse BV2 cells pre-incubated for 1 hr before LPS stimulation for 24 hrs by ELISA; assay type: functional, cell-based
Microglia [15] = experiment: Inhibition of lipopolysaccharide-induced IL6 production in Sprague-Dawley rat primary microglia cells pre-incubated for 1 hr before LPS stimulation for 24 hrs by ELISA; assay type: functional, cell-based
BV-2 [16] = experiment: Inhibition of lipopolysaccharide-induced IL6 production in mouse BV2 cells pre-incubated for 1 hr before LPS stimulation for 24 hrs by ELISA; assay type: functional, cell-based

IC50 (BV-2 [2])	Structure (SMILES)	Activity (BV-2 [1])	inhibition (BV-2 [2])	inhibition at 60 µM (BV-2 [3])	further results
30.5 µM	C[C@@H]1C[C@H](O)C=C2C(=O)C=C[C@@H](C(C)(C)O)[C@]21C	Non-Toxic	Dose-dependent effect		
> 60 µM	CC(C)C1CC[C@@](C)(O)[C@@H]2CC[C@](C)(O)[C@H]2[C@@H]1O (stereo partly drawn)	Non-Toxic		34%	
> 60 µM	CC(C)[C@]1(O)CC[C@@]2(C)[C@H](O)CC[C@](C)(O)[C@@H]2C1	Non-Toxic		28.4%	
3.48 µM	C[C@@H]1CCC=C2C(=O)C=C[C@@H](O)[C@]21C	Non-Toxic	Dose-dependent effect		IC50 (Microglia [4]): 4.96 µM; inhibition (Microglia [5]): Dose-dependent effect; inhibition (Microglia [6]): Dose-dependent effect; inhibition (BV-2 [7]): Dose-dependent effect; IC50 (Microglia [8]): 5.33 µM; IC50 (Microglia [9]): 3.18 µM; inhibition (BV-2 [10]): Dose-dependent effect; IC50 (BV-2 [11]): 2.05 µM; IC50 (BV-2 [12]): 2.04 µM; IC50 (Microglia [13]): 5.84 µM; IC50 (BV-2 [14]): 2.11 µM; IC50 (Microglia [15]): 3.62 µM; IC50 (BV-2 [16]): 3.57 µM
2.43 µM	C[C@@H]1C[C@H](O)C=C2C(=O)C=C[C@@H](O)[C@]21C [NARCHINOL B]	Non-Toxic	Dose-dependent effect		IC50 (Microglia [4]): 4.17 µM; inhibition (Microglia [5]): Dose-dependent effect; inhibition (Microglia [6]): Dose-dependent effect; inhibition (BV-2 [7]): Dose-dependent effect; IC50 (Microglia [8]): 3.1 µM; IC50 (Microglia [9]): 9.83 µM; inhibition (BV-2 [10]): Dose-dependent effect; IC50 (BV-2 [11]): 2.38 µM; IC50 (BV-2 [12]): 1.73 µM; IC50 (Microglia [13]): 3.11 µM; IC50 (BV-2 [14]): 1.7 µM; IC50 (Microglia [15]): 4 µM; IC50 (BV-2 [16]): 2.9 µM
> 60 µM	C=C1[C@@H]2O[C@@H](OC)[C@H]3[C@@H]1C[C@H](O)[C@]3(C)O2	Non-Toxic		39.7%	
46.5 µM	C[C@@H]1C[C@@H](O)C=C2C(=O)C=C[C@@H](C(C)(C)O)[C@]21C	Non-Toxic	Dose-dependent effect		
27.8 µM	C=C1COC(=O)[C@H]2[C@@H]1C[C@H](O)[C@@]2(C)O [JATAMANIN A]	Non-Toxic	Dose-dependent effect		
	CC(C)(O)C[C@@H]1CC[C@]2(C)[C@@H](O)CC[C@@](C)(O)[C@@H]12	Non-Toxic	Dose-dependent effect	39%	
